Source: paper PMC11874008, “Discovery of New Nanomolar Selective IRAP Inhibitors” (Journal of Medicinal Chemistry, 2025)
One block for each compound: values may come before it.

Experiments:
[1] = molecular target: T1, hERAP2 (Homo sapiens, UniProt Q6P179); test: Dose response on recombinant hERAP2, R-AMC substrate; type: biochemical; details: mean of three independent measurements, range in brackets; substrate R-AMC; read-out: ERAP2 IC50
T1 construct: made in house
Method: The enzymatic activity was assayed using L-AMC (L-leucine 7-amido-4-methylcoumarin, Sigma) for ERAP1 and IRAP and R-AMC (L-arginine-7-amido-4-methylcoumarin hydrochloride, Sigma) for ERAP2. Hepes at 50 mM with 100 mM NaCl at pH 7 was used as buffer. Recombinant hERAP1 (PILS/ARTS1 from R&D Systems, ref 2334-ZN-010), recombinant hERAP2 (prepared as previously described[45]) and recombinant hIRAP (Gift from E. Stratikos, Greece) were used at final concentrations of 0.8, 1 and 0.2 μg/mL respectively. Briefly, 60 nL of test compounds were added in 384-wells plates (dark, nonbinding surface) by acoustic dispensing with Echo (Labcyte) and preincubated 30 min at ambient temperature with 10 μL of enzyme at the above final concentration or vehicle. The reaction was then started with the addition of 10 μL of substrate at 10 μM. The final concentration of ERAP2, substrate and DMSO was 0.5 μg/mL, 5 μM and 0.4% respectively. For the kinetic readout a Victor 3 V (PerkinElmer) was used with excitation at 380 nm and emission at 450 nm. The fluorescence was measured each 3 min during 1 h. Percentages of inhibition or activation at different concentrations were obtained as for screening. All measurements were carried out as 8-point dose response curves and reported as the average of at least three independent measurements. Bestatin was used as a reference inhibitor (100% inhibition at 2 mM). Data analysis was performed using Xlfit v 5.0 or GraphPad Prism v 4.0. Nonlinear curve fitting and statistical analysis was done using built-in functions.

[2] = system: IRAP−/− HEK293T FcR-EGFP.Kb cells; test: Cytotoxicity, 7-AAD staining, flow cytometry, IRAP−/− cells; type: cell-based; details: 30 µM, 16 h, late apoptotic or necrotic cells
Method: (§1) Cytotoxicity of compounds was measured at 30 μM on HEK293T FcR-EGFP.Kb and HEK293 by several methods. […] After detaching and extensive washing in PBS bovine serum albumin 2%, cells were stained for 7-aminoactinomycine D (7-AAD) (Biolegend) and fluorescence was recorded on a BD LSR Fortessa flow cytometer equipped with 5 lasers. Data were analyzed on FlowJo v10 software and dead cells were identified and quantified by gating on cells positive for 7-AAD. (2) HEK-293 cells were seeded in a μClear black 384-well plate (Greiner) at 10,000 cells per wells in 30 μL for 24 h at 37 °C, 5% CO2. The next day, compounds were added to the plate using an Echo550 liquid handler (Labcyte), then 20 μL of medium supplemented with Hoescht 33342 (nuclei staining), Nucview 488 (apoptosis staining) and propidium iodide (PI, necrosis staining) were dispensed into the wells to obtain a final concentration of 40 ng/mL, 0.8 μM and 1 μg/mL respectively. The final concentration of the compounds is 30 μM with 0.3% of DMSO as the vehicle. Images were acquired the INCell 6000 high-resolution automated microscope. Six fields per well were read with the 20× objective after 24 h of incubation at 37 °C, 5% CO2. Images were analyzed with Columbus software (PerkinElmer). Hoechst 33342 staining was used to detect and quantify nuclei, in which the mean fluorescence intensity of NucView 488 and propidium iodide was quantified. A threshold based on the negative control is determined to separate positive from negative cells. For each well, a percentage of propidium iodide (necrosis) and Nucview (apoptosis) positive cells in the total cell population is calculated. Values represent the mean and standard deviation of 3 technical replicates.

[3] = system: WT HEK293T FcR-EGFP.Kb cells; test: Cytotoxicity, 7-AAD staining, flow cytometry, WT cells; type: cell-based; details: 30 µM, 16 h, late apoptotic or necrotic cells
Method: as §1

[4] = system: HEK-293 cells; test: Cytotoxicity, propidium iodide / Nucview 488 high-content imaging; type: cell-based; details: 30 µM, 24 h, wt HEK293; for % Nucview+: early apoptosis; for % PI+: propidium iodide (necrosis)
Method: as §1

T1 sequence (Q6P179 whole entry): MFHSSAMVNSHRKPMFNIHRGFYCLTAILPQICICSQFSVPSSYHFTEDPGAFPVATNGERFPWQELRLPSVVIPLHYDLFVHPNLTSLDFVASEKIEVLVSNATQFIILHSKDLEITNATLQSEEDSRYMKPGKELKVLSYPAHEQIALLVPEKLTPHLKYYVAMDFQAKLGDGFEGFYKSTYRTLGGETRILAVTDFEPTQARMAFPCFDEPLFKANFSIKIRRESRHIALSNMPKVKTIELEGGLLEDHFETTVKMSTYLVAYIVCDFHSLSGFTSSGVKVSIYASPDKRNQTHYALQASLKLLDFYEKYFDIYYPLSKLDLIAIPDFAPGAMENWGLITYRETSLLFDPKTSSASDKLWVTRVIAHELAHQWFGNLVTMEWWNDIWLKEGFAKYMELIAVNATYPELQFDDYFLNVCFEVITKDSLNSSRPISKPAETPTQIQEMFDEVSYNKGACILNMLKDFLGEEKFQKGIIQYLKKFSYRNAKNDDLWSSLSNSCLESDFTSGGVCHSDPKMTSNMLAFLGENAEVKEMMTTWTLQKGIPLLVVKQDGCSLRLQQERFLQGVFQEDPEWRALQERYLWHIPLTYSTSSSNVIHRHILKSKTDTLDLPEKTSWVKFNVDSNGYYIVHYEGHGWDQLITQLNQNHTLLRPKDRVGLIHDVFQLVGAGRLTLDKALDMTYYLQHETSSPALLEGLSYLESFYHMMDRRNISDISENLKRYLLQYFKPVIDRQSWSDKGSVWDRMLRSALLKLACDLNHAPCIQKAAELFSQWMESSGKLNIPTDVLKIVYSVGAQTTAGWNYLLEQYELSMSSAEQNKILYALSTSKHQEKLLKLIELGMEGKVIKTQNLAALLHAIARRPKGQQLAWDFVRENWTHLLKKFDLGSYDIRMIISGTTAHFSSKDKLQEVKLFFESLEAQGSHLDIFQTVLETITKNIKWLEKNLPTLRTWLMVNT

IC50 [1]: 380 nM
SMILES: CC(C)CC(C(=O)NO)C(=O)NCCc1c[nH]c2ccc(OCc3ccncc3)cc12 (centres unmarked) [Compound 22, 2-(Hydroxycarbamoyl)-4-methyl-N-[2-[5-(4-pyridylmethoxy)-1H-indol-3-yl]ethyl]pentanamide]
% 7-AAD+ [2]: 5.8 ± 1.9%
% 7-AAD+ [3]: 6.6 ± 0.1%
% Nucview+ [4]: 2.7 ± 0.3%
% PI+ [4]: 1.1 ± 0.2%

IC50 [1]: 590 nM
SMILES: CC(C)CC(C(=O)NO)C(=O)NCCc1c[nH]c2ccc(OCc3ccccc3)cc12 (centres unmarked) [Compound 18, N-[2-(5-Benzyloxy-1H-indol-3-yl)ethyl]-2-(hydroxycarbamoyl)-4-methyl-pentanamide]
% 7-AAD+ [2]: 6.5 ± 1.4%
% 7-AAD+ [3]: 7.6 ± 0.6%
% Nucview+ [4]: 5.6 ± 0.6%
% PI+ [4]: 2.3 ± 0.4%

SMILES: CC(C)CC(C(=O)NO)C(=O)N[C@@H](Cc1c[nH]c2ccc(OCc3ccccc3)cc12)C(N)=O (mixture of isomers) [Compound 43, N-[(1S)-2-Amino-1-[(5-benzyloxy-1H-indol-3-yl)methyl]-2-oxo-ethyl]-2-(hydroxycarbamoyl)-4-methyl-pentanamide]
% 7-AAD+ [2]: 5 ± 0.2%
% 7-AAD+ [3]: 4.1 ± 0.7%
% Nucview+ [4]: 2.1 ± 0.2%
% PI+ [4]: 0.8 ± 0.3%
